In patent US20250382556A1, “MODULATION OF THE BRANCHED-CHAIN METABOLITE CONTENT OF FRUITS AND VEGETABLES” (BOARD OF TRUSTEES OF MICHIGAN STATE UNIVERSITY, priority 2024, published 2025):

System: flowering quince peel
Experiment: Free amino acid content of flowering quince peel via UPLC-MS/MS after AHAS inhibitor treatment
Type: in vivo, Chaenomeles x superba
Design: key to free asparagine content compared to control / free aspartate content compared to control / free cysteine content compared to control / free glutamate content compared to control / free glutamine content compared to control / free glycine content compared to control / free lysine content compared to control / free phenylalanine content compared to control / free threonine content compared to control / free tryptophan content compared to control / free tyrosine content compared to control / free alanine content compared to control / free arginine content compared to control: —: Dash indicates no significant difference between treatments
Description: Whole apple fruit, freshly harvested and at an early stage of ripening (‘ripening’), were held at room temperature (22° C.) and rubbed daily with 3 mL of a freshly made 1mM solution of the inhibitor rimsulfuron (N-((4,6-dimethoxypyrimidin-2-yl)aminocarbonyl)-3-(ethylsulfonyl)-2-pyridinesulfonamide, made from DuPont MATRIX® SG, 25% w/w active ingredient; 0.1% Tween 20) or water solution containing 0.1% Tween 20 before preparation with further treatments. Flowering quince fruit were smaller than the apple fruit and had 2 mL of the control and treatment solutions applied daily at 22° C. ‘Gala’, ‘Empire’, and ‘Jonagold’ apple fruit were treated for four, nine, and seven days before further preparation, respectively. Flowering quince fruit were treated for six days before analysis. Headspace volatile emissions were monitored for three or four representative fruits during the incubation/treatment period to determine appropriate times for further treatments. During method testing, 1 mM solutions of the imidazolinone imazamox was also assessed with apple fruit (2-[4,5-dihydro-4-methyl-4-(1-methylethyl)-5-oxo-1H-imidazol-2-yl]-5-(methoxymethyl)-3-pyridinecarboxylic acid, made from RAPTOR®, 12.1% w/w active ingredient; 0.1% Tween 20).
After volatile analysis, apple peel disks, collected peel of flowering quince, and ‘Valery’ pulp section samples were held at −80° C. for further amino acid analysis.
Frozen samples were ground to a powder in liquid nitrogen-chilled mortar and pestles. About 500 mg of tissue was vortexed for 10 sec in 2 mL of room temperature (22° C.) extraction solution (1:1:1 water:acetonitrile:ethanol, v/v/v) spiked with 2 nmoles of U-^13C,^15N labeled amino acids (MilliporeSigma) as internal standards and heated for 15 min in a 65° C. water bath. Extracts were briefly chilled on ice before centrifugation at 4400×g for 15 min at 4° C. The supernatant was filtered by centrifugation (0.2 μm nylon centrifugal filter; Costar, Corning) at 21000×g for 5 min at room temperature. 10 μL of the filtrate was transferred to an autosampler vial and diluted 100-fold with 990 μL of 10.1 mM perfluorohexanoic acid (PFHA) spiked with […] of internal standard. Thus the final concentration of internal standard was ˜2 μM.
An amino acid standard series was prepared from a premade mixture (MilliporeSigma, AAS18) that contained equal molar amounts of cystine and all 20 proteinogenic amino acids save for tryptophan, asparagine, glutamine, and cysteine. An equal molar mixture of tryptophan, asparagine, glutamine, and cysteine was subsequently prepared. To avoid dilution errors or artefacts from differing buffers, these amino acid stocks were aliquoted and desiccated such that a five-part standard series ranging from 250 μM to 25 nM would be produced upon resuscitation with 10 μL of spiked extraction buffer and 990 μL spiked PFHA solution.
Samples and amino acids were held overnight at −20° C. before analysis. Amino acids were analyzed with a Xevo TQ-S Micro UPLC (H-Class)-MS/MS (Waters) at the Michigan State University Mass Spectrometry and Metabolomics Core. Conditions were as follows. HPLC column: Acquirt UPLC HSS T3, 2.1×100 mm, 1.7 μm particle size (Waters), with a 0.2 μm pre-column filter (Waters). Mobile phase: A) 10 mM PFHA in water, B) acetonitrile. LC gradient: linear gradient, slope setting=6, flow rate=0.3 mL·min^−1, step 1) 0 min, 100% A, 0% B, 2) 1 min, 100% A, 0% B, 3) 8 min, 35% A, 65% B, 4) 8.01 min, 10% A, 90% B, 5) 9 min, 10% A, 90% B, 6) 9.01 min, 100% A, 0% B, 7) 13 min, 100% A, 0% B. Column temp: 40° C. Autosampler temp: 10° C. Injection volume: 10 μL. Tune parameters: electrospray ionization, standard ESI probe, capillary voltage=+1.0 kV, source temp=120° C., desolvation temp=350° C., desolvation gas=800 L·hr^−1, cone gas=40 L·hr^−1. MS collection was split into three phases and were adjusted after checking the retention time of several samples; however proline was missed for apple and flowering quince samples. […]

[1] = Dr. Banks Pink flowering quince peel, 1 mM daily, six days

## CCS(=O)(=O)c1cccnc1S(=O)(=O)NC(=O)Nc1nc(OC)cc(OC)n1 [rimsulfuron, N-((4,6-dimethoxypyrimidin-2-yl)aminocarbonyl)-3-(ethylsulfonyl)-2-pyridinesulfonamide]
[1]
  free alanine content compared to control: —
  free arginine content compared to control: —
  free asparagine content compared to control: —
  free aspartate content compared to control: —
  free cysteine content compared to control: —
  free glutamate content compared to control: —
  free glutamine content compared to control: —
  free glycine content compared to control: —
  free histidine content compared to control: 166.5 ± 20.1%
  free isoleucine content compared to control: 51.3 ± 9.1%
  free leucine content compared to control: 81.9 ± 5.4%
  free lysine content compared to control: —
  free methionine content compared to control: 245.3 ± 38.5%
  free phenylalanine content compared to control: —
  free serine content compared to control: 302.1 ± 32.0%
  free threonine content compared to control: —
  free tryptophan content compared to control: —
  free tyrosine content compared to control: —
  free valine content compared to control: 28.1 ± 3.8%
Flowering quince peel tissue
  leucine content reduced: 18.1%
  total content of free amino acids: not significantly altered
  valine and isoleucine collectively reduced: 64.2%
